Assay results as given in paper PMC6422423, “Constitutively active BRS3 is a genuinely orphan GPCR in placental mammals” (PLoS Biology, 2019).

Legend:
NMBR = target: T1, NMBR (Homo sapiens, UniProt P28336); experiment: Radioligand binding (competition); conditions: [125I]-Tyr-NMB
T1 construct: HA; expressed in transfected cells; host or cells: HEK293
Description: HEK293 cells were seeded in a 10-cm tissue culture dish at a density of 10^6 cells per dish and grown overnight at 37°C in growth medium. The following morning, 5 μg of different species’ BRS3 plasmids were transfected. After 6 h, the medium was replaced with growth medium. Cells were maintained at 37°C in a 5% CO2 atmosphere and used 48 h later for binding assays. The positive control group included transfected GRPR and NMBR; the test group consisted of transfected BRS3 from different species. […] The cell concentration was adjusted to between 0.05 and 4 × 10^6 cells/ml for each receptor such that less than 20% of the total added radioactive ligand was bound during the incubation, and the results were compared to cells transfected with GRPR or NMBR adjusted in concentration to bind a similar amount of ligand. After the incubation, 100 μl aliquots were added to 1.5-ml microfuge tubes, which contained 100 μl of binding buffer to determine the total radioactivity. […] The amount of radioactivity bound to the cells was measured in a Cobra II Gamma counter (Packard Instruments). Binding was expressed as the percentage of total radioactivity that was associated with the cell pellet. […] Each point was measured in duplicate, and each experiment was replicated at least four times. […] All the experiment data were calculated using 1 pM ligand-treated as 100% control.

chicken BRS3 (cBRS3) = experiment: ERK1/2 phosphorylation (WT and mutants); type: cell-based, Gallus gallus; conditions: cBRS3 P205S; exception to the significant effects
Description: For ERK1/2 phosphorylation, HEK293 cells were seeded in 24-well plates and transfected with GRPR, NMBR, BRS3, mutants of different species’ BRS3, or an empty vector plasmid, pcDNA3.1-V5-His plasmid (300 ng). […] Each sample with an equal amount of protein was mixed with 6×SDS sample buffer, boiled for 5 min, and separated on 10% SDS-polyacrylamide gel electrophoresis (PAGE) before transferring the proteins onto a PVDF membrane. The membranes were then blocked at room temperature for 1 h with 5% milk powder in Tris-buffered saline-Tween (TBST), followed by subsequent incubation at 4°C overnight in TBST containing the different primary antibodies (1:1,000 dilution). After washing three times (10 min each time) with TBST, the membranes were incubated for 1 h in TBST containing the secondary antibodies (1:2,000 dilution), followed by washing three times (10 min each time) with TBST, prior to detection by chemiluminescence.

T1 sequence (P28336 whole entry, species assumed): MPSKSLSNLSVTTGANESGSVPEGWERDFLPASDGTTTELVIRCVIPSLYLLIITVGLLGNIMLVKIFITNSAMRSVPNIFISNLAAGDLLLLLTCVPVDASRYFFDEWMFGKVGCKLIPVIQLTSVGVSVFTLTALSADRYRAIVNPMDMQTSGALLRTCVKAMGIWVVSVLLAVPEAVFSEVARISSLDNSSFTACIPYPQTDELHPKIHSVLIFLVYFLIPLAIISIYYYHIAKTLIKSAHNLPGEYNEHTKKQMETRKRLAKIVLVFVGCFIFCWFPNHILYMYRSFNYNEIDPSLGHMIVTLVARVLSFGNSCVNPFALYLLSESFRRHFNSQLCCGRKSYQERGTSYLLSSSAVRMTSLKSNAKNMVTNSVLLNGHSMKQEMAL

| Substance | Inhibition of NMBR–NMB binding (in words) (NMBR) | ERK phosphorylation, mutant (in words) (chicken BRS3 (cBRS3)) |
| --- | --- | --- |
| GSHWAVGHLM-NH2 [GRP, gastrin-releasing peptide] | cannot inhibit | – |
| neuromedin B [NMB] | – | excepting P205S of cBRS3 for ERK phosphorylation activated by NMB |
